Experimental data: patent publication US10982284B2, “Compositions and methods APC, CREB, and BAD pathways to assess and affect cancer” (H. Lee Moffitt Cancer Center and Research Institute, Inc., priority 2011, dated 2021)
pIC50: −log10 of the molar value.

Tests used:
Test in all cases: CellTiter-Blue cell viability assay
Type in all cases: cell-based, human
IGR-OV1 = IGR-OV1 ovarian cancer cell line; 72 hours; 50% reduction in growth/viability
Source text: (§1) Ovarian cancer cell lines were obtained from the American Type Culture Collection (Manassas, Va.) (CAOV3, OV90, OVCAR3, SKOV3, TO[…]); from the European Collection of Cell Cultures, Salisbury, UK (A2780CP, A2780S); or from Kyoto University, Kyoto, Japan ([…], Tyknu, and TyknuC is R) or were kind gifts from Dr. Patricia Kruk, Department of Pathology, College of Medicine, University of South Florida, Tampa, Fla., and Susan Murphy, PhD, Dept of OBGYN/Division of GYN Oncology, Duke University, Durham, N.C. […] Cell lines were maintained in RPMI-1640 (Invitrogen, Carlsbad, Calif.) supplemented with 10% fetal bovine serum (Fisher Scientific, Pittsburgh, Pa.), 1% sodium pyruvate, 1% penicillin/streptomycin (Cellgro, Manassas, Va.), and 1% nonessential amino acids (HyClone, Hudson, N.H.). Mycoplasma testing was performed every 6 months following manufacturer's protocol (Lonza, Rockland, Me.). Drug activity was evaluated using a high-throughput CellTiter-Blue cell viability assay. […] After cell adherence, increasing concentrations of cisplatin, carboplatin (Sigma-Aldrich, St. Louis, Mo.), paclitaxel (Sequoia Research Products Ltd., Pangbourne, UK), or carboplatin plus paclitaxel (carbotaxol: constant molar ratio of carboplatin to paclitaxel of 20,000:1) were added to appropriate wells using an automated pipetting station. Four replicate wells were used for each drug concentration and vehicle controls. […] The cells were incubated with the drug for 72 hours, and 5 μL of CellTiter-Blue reagent (Promega Corp) was added to each well. Fluorescence was read at […] using a Synergy 4 microplate reader (Bio-Tek Instruments, Inc., Winooski, Vt.).

Tyknu = Tyknu ovarian cancer cell line; 72 hours; 50% reduction in growth/viability
Source text: as §1

M41CSR = M41CSR ovarian cancer cell line; 72 hours; 50% reduction in growth/viability
Source text: as §1

HeyA8 = HeyA8 ovarian cancer cell line; 72 hours; 50% reduction in growth/viability
Source text: as §1

Dov13 = Dov13 ovarian cancer cell line; 72 hours; 50% reduction in growth/viability
Source text: as §1

Ovary1847 = Ovary1847 ovarian cancer cell line; 72 hours; 50% reduction in growth/viability
Source text: as §1

OVCA432 = OVCA432 ovarian cancer cell line; 72 hours; 50% reduction in growth/viability
Source text: as §1

TyknuCisR = TyknuCisR ovarian cancer cell line; 72 hours; 50% reduction in growth/viability
Source text: as §1

IMCC3 = IMCC3 ovarian cancer cell line; 72 hours; 50% reduction in growth/viability
Source text: as §1

OVCAR10 = OVCAR10 ovarian cancer cell line; 72 hours; 50% reduction in growth/viability
Source text: as §1

SK-OV-4 = SK-OV-4 ovarian cancer cell line; 72 hours; 50% reduction in growth/viability
Source text: as §1

CAOV2 = CAOV2 ovarian cancer cell line; 72 hours; 50% reduction in growth/viability
Source text: as §1

OVCAR2 = OVCAR2 ovarian cancer cell line; 72 hours; 50% reduction in growth/viability
Source text: as §1

A2780S = A2780S ovarian cancer cell line; 72 hours; 50% reduction in growth/viability
Source text: as §1

OVCAR8 = OVCAR8 ovarian cancer cell line; 72 hours; 50% reduction in growth/viability
Source text: as §1

C13 = C13 ovarian cancer cell line; 72 hours; 50% reduction in growth/viability
Source text: as §1

OVCA429 = OVCA429 ovarian cancer cell line; 72 hours; 50% reduction in growth/viability
Source text: as §1

MCAS = MCAS ovarian cancer cell line; 72 hours; 50% reduction in growth/viability
Source text: as §1

OVCA433 = OVCA433 ovarian cancer cell line; 72 hours; 50% reduction in growth/viability
Source text: as §1

CHI = CHI ovarian cancer cell line; 72 hours; 50% reduction in growth/viability
Source text: as §1

M41 = M41 ovarian cancer cell line; 72 hours; 50% reduction in growth/viability
Source text: as §1

BG1 = BG1 ovarian cancer cell line; 72 hours; 50% reduction in growth/viability
Source text: as §1

OV2008 = OV2008 ovarian cancer cell line; 72 hours; 50% reduction in growth/viability
Source text: as §1

OVCAR4 = OVCAR4 ovarian cancer cell line; 72 hours; 50% reduction in growth/viability
Source text: as §1

IMCC5 = IMCC5 ovarian cancer cell line; 72 hours; 50% reduction in growth/viability
Source text: as §1

A2008 = A2008 ovarian cancer cell line; 72 hours; 50% reduction in growth/viability
Source text: as §1

A2780CP = A2780CP ovarian cancer cell line; 72 hours; 50% reduction in growth/viability
Source text: as §1

CHIcisR = CHIcisR ovarian cancer cell line; 72 hours; 50% reduction in growth/viability
Source text: as §1

OVCAR3 = OVCAR3 ovarian cancer cell line; 72 hours; 50% reduction in growth/viability
Source text: as §1

OVCA420 = OVCA420 ovarian cancer cell line; 72 hours; 50% reduction in growth/viability
Source text: as §1

CAOV3 = CAOV3 ovarian cancer cell line; 72 hours; 50% reduction in growth/viability
Source text: as §1

OVCAR5 = OVCAR5 ovarian cancer cell line; 72 hours; 50% reduction in growth/viability
Source text: as §1

`N.N.[Cl][Pt][Cl]` [Cisplatin, cisplatin] gave a pIC50 (IGR-OV1) of 5.85, a pIC50 (Tyknu) of 5.32 and a pIC50 (M41CSR) of 4.87. It also gave a pIC50 (HeyA8) of 4.48, a pIC50 (Dov13) of 4.61 and a pIC50 (Ovary1847) of 5.06. It also gave a pIC50 (OVCA432) of 5.85, a pIC50 (TyknuCisR) of 4.75 and a pIC50 (IMCC3) of 4.66. The pIC50 (OVCAR10) was 4.49, the pIC50 (SK-OV-4) was 4.89 and the pIC50 (CAOV2) was 5.35. It also gave a pIC50 (OVCAR2) of 5.43, a pIC50 (A2780S) of 5.33 and a pIC50 (OVCAR8) of 4.12. For the same compound, the pIC50 (C13) was 4.75, the pIC50 (OVCA429) was 5.24 and the pIC50 (MCAS) was 4.21. For the same compound, the pIC50 (OVCA433) was 5.06, the pIC50 (CHI) was 5.31 and the pIC50 (M41) was 4.89. It also gave a pIC50 (BG1) of 4.44, a pIC50 (OV2008) of 5.46 and a pIC50 (OVCAR4) of 4.69. The pIC50 (IMCC5) was 5.31, the pIC50 (A2008) was 5.82 and the pIC50 (A2780CP) was 4.36. The pIC50 (CHIcisR) was 5.89, the pIC50 (OVCAR3) was 5.89 and the pIC50 (OVCA420) was 4.86. For the same compound, the pIC50 (CAOV3) was 4.46 and the pIC50 (OVCAR5) was 4.89.
